The record followed here is patent US12319672B2, “Alpha-D-galactopyranoside derivatives” (Idorsia Pharmaceuticals Ltd, priority 2019, dated 2025).

Each structure is given as a SMILES string.

The target in one assay is human Gal-3 (hGal-3) (Homo sapiens (Human), UniProt P17931). Kind of assay: Competitive binding assay: binding of biotinylated hGal-3 to microplate-adsorbed asialofetuin (ASF). To be noted: Activity on hGal-3; mean values of several measurements. Summed up:
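Biotinylated hGal-3 (300-1000 ng/mL) bound to ASF-coated wells with serially diluted compound, 3 h at 4° C. After washing, bound protein was detected with streptavidin-peroxidase (80 ng/mL, 1 h, 4° C) and ABTS substrate; IC50 values are means of several measurements.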

Another assay concerns the target human Gal-1 (hGal-1). The experiment in a line: Competitive binding assay: binding of biotinylated hGal-1 to microplate-adsorbed asialofetuin (ASF). The following applies: Activities on hGal-1; mean values of several measurements. Summed up:
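Biotin-hGal-3/hGal-1 300-1000 ng/mL + cpd (DMSO dilutions) on ASF-coated plate, 3 h 4° C; wash; SA-HRP 80 ng/mL 1 h 4° C; wash; ABTS. IC50 = mean of several runs. hGal-1 preferably Cys→Ser (all six) mutant.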

Sequence of human Gal-1 (hGal-1) (P09382 2-135 limits assumed): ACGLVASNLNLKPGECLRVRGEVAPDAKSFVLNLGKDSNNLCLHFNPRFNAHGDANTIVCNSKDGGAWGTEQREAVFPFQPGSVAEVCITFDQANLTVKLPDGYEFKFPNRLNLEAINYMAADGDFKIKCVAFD
Sequence of human Gal-3 (hGal-3) (P17931 whole entry): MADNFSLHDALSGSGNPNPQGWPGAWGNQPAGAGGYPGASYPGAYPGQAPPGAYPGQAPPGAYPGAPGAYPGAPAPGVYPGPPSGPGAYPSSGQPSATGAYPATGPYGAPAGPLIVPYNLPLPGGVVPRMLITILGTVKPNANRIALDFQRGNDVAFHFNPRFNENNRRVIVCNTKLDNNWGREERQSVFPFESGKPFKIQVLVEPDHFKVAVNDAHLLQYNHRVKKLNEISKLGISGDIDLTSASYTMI

Consider `CO[C@@H]1[C@@H](n2cc(-c3cc(F)c(F)c(F)c3)nn2)[C@@H](O)[C@@H](CO)O[C@@H]1Cc1cc(C2CCN(C(=O)CC(C)C)CC2)on1` [Example 3.48, 1-(4-(3-(((2R,3R,4S,5R,6R)-5-hydroxy-6-(hydroxymethyl)-3-methoxy-4-(4-(3,4,5-trifluorophenyl)-1H-1,2,3-triazol-1-yl)tetrahydro-2H-pyran-2-yl)methyl)isoxazol-5-yl)piperidin-1-yl)-3-methylbutan-1-one], for which the IC50 (in general, the midpoint of a concentration-inhibition curve) at human Gal-3 (hGal-3) was 41 nM; at human Gal-1 (hGal-1), 470 nM.
In the same order, the values of `CO[C@@H]1[C@@H](n2cc(-c3cc(F)c(F)c(F)c3)nn2)[C@@H](O)[C@@H](CO)O[C@@H]1Cc1cc(C2(O)CCC(F)(F)CC2)on1` [Ex 1.83] are 400 nM and 8210 nM.
Taken in the same sequence, the figures for `CO[C@@H]1[C@@H](n2cc(-c3cc(F)c(F)c(F)c3)nn2)[C@@H](O)[C@@H](CO)O[C@@H]1Cc1cc(C2CCC(NC(=O)[C@@H](NC(=O)OC(C)(C)C)C(C)C)CC2)no1` (stereo partly drawn) [Example 2.29, tert-butyl ((S)-1-(((1R,4S)-4-(5-(((2R,3R,4S,5R,6R)-5-hydroxy-6-(hydroxymethyl)-3-methoxy-4-(4-(3,4,5-trifluorophenyl)-1H-1,2,3-triazol-1-yl)tetrahydro-2H-pyran-2-yl)methyl)isoxazol-3-yl)cyclohexyl)amino)-3-methyl-1-oxobutan-2-yl)carbamate] were 17 nM and 2330 nM.
Taken in the same sequence, the figures for `CO[C@@H]1[C@@H](n2cc(-c3cc(F)c(F)c(F)c3)nn2)[C@@H](O)[C@@H](CO)O[C@@H]1Cc1cc(C)no1` [Ex 1.306] were 1220 nM and 6190 nM.
Take `CO[C@@H]1[C@@H](n2cc(-c3ccc(Cl)c(F)c3F)nn2)[C@@H](O)[C@@H](CO)O[C@@H]1CC1CC(C(C)(C)C)=NO1` (stereo partly drawn) [Ex 1.266]: the IC50 on human Gal-3 (hGal-3) is 91 nM; at human Gal-1 (hGal-1) it was 1560 nM.
Taken in the same sequence, the figures for `CO[C@@H]1[C@@H](n2cc(-c3ccc(F)c(F)c3F)nn2)[C@@H](O)[C@@H](CO)O[C@@H]1Cc1cc(C2(C)COC2)no1` [Ex 1.252] were 69 nM and 280 nM.
In the same order, the values of `CCOC(=O)C1CCC(O)(c2cc(C[C@H]3O[C@H](CO)[C@H](O)[C@H](n4cc(-c5cc(F)c(F)c(F)c5)nn4)[C@H]3O)no2)CC1` (stereo partly drawn) [Ex 1.78] are 1000 nM and 9640 nM.
Turning to `CO[C@@H]1[C@@H](n2cc(-c3ccc(C)c(F)c3F)nn2)[C@@H](O)[C@@H](CO)O[C@@H]1CN1CC(=O)N(C2CCCCC2)C1` [Example 6.06, 3-cyclohexyl-1-(((2R,3R,4S,5R,6R)-4-(4-(2,3-difluoro-4-methylphenyl)-1H-1,2,3-triazol-1-yl)-5-hydroxy-6-(hydroxymethyl)-3-methoxytetrahydro-2H-pyran-2-yl)methyl)imidazolidin-4-one], the IC50 at human Gal-3 (hGal-3) was determined as 42 nM; at human Gal-1 (hGal-1), 1630 nM.
Consider `OC[C@H]1O[C@H](Cc2cc(C3CCNCC3)on2)[C@H](O)[C@@H](n2cc(-c3cc(F)c(F)c(F)c3)nn2)[C@H]1O` [Example 3.08, (2R,3R,4R,5R,6R)-2-(hydroxymethyl)-6-((5-(piperidin-4-yl)isoxazol-3-yl)methyl)-4-(4-(3,4,5-trifluorophenyl)-1H-1,2,3-triazol-1-yl)tetrahydro-2H-pyran-3,5-diol], for which the figures for the IC50 on human Gal-3 (hGal-3) and on human Gal-1 (hGal-1) were 290 nM and 12500 nM, respectively.
In the same order, the values of `CO[C@@H]1[C@@H](n2cc(-c3cc(F)c(F)c(F)c3)nn2)[C@@H](O)[C@@H](CO)O[C@@H]1Cc1cc(C2CCN(C(=O)[C@@H](N)C(C)C)CC2)on1` [Example 3.54, (S)-2-amino-1-(4-(3-(((2R,3R,4S,5R,6R)-5-hydroxy-6-(hydroxymethyl)-3-methoxy-4-(4-(3,4,5-trifluorophenyl)-1H-1,2,3-triazol-1-yl)tetrahydro-2H-pyran-2-yl)methyl)isoxazol-5-yl)piperidin-1-yl)-3-methylbutan-1-one] are 440 nM and 1510 nM.
Take `OC[C@H]1O[C@H](Cc2cc(C3CCN(c4nccs4)CC3)on2)[C@H](O)[C@@H](n2cc(-c3cc(F)c(F)c(F)c3)nn2)[C@H]1O` [Ex 1.87]: the figures for the IC50 on human Gal-3 (hGal-3) and at human Gal-1 (hGal-1) were 80 nM and 1970 nM, respectively.
In the same order, the values of `Cc1ccc(-c2cn([C@H]3[C@@H](O)[C@@H](CO)O[C@H](Cc4cc(C(C)(C)C)no4)[C@@H]3OC(N)=O)nn2)c(F)c1F` [Example 2.45, (2R,3R,4S,5R,6R)-2-((3-(tert-butyl)isoxazol-5-yl)methyl)-4-(4-(2,3-difluoro-4-methylphenyl)-1H-1,2,3-triazol-1-yl)-5-hydroxy-6-(hydroxymethyl)tetrahydro-2H-pyran-3-yl carbamate] are 22 nM and 2420 nM.
In the case of `CO[C@@H]1[C@@H](n2cc(-c3cc(F)c(F)c(F)c3)nn2)[C@@H](O)[C@@H](CO)O[C@@H]1Cc1cn(C2CCS(=O)(=NC3CCC(F)(F)CC3)CC2)nn1` (stereo partly drawn) [Example 4.33, 1-((4,4-difluorocyclohexyl)imino)-4-(4-(((2R,3R,4S,5R,6R)-5-hydroxy-6-(hydroxymethyl)-3-methoxy-4-(4-(3,4,5-trifluorophenyl)-1H-1,2,3-triazol-1-yl)tetrahydro-2H-pyran-2-yl)methyl)-1H-1,2,3-triazol-1-yl)hexahydro-1l6-thiopyran 1-oxide], the IC50 on human Gal-3 (hGal-3) was 71 nM; on human Gal-1 (hGal-1), 220 nM.
Taken in the same sequence, the figures for `Cc1ccc(-c2cn([C@H]3[C@@H](O)[C@@H](CO)O[C@H](Cc4cc(C(C)(C)C)no4)[C@@H]3OCc3cscn3)nn2)c(F)c1F` [Example 2.54, (2R,3R,4S,5R,6R)-6-((3-(tert-butyl)isoxazol-5-yl)methyl)-4-(4-(2,3-difluoro-4-methylphenyl)-1H-1,2,3-triazol-1-yl)-2-(hydroxymethyl)-5-(thiazol-4-ylmethoxy)tetrahydro-2H-pyran-3-ol] were 52 nM and 590 nM.
In the case of `CC(C)(C)c1cc(C[C@H]2O[C@H](CO)[C@H](O)[C@H](n3cc(-c4cc(F)c(F)c(F)c4)nn3)[C@H]2OCC(=O)O)on1` [Example 2.37, 2-(((2R,3R,4S,5R,6R)-2-((3-(tert-butyl)isoxazol-5-yl)methyl)-5-hydroxy-6-(hydroxymethyl)-4-(4-(3,4,5-trifluorophenyl)-1H-1,2,3-triazol-1-yl)tetrahydro-2H-pyran-3-yl)oxy)acetic acid], the values for the IC50 at human Gal-3 (hGal-3) and on human Gal-1 (hGal-1) were 71 nM and 1740 nM, respectively.
Taken in the same sequence, the figures for `CC(C)(C)OC(=O)N1CCC(C2=NOC(C[C@H]3O[C@H](CO)[C@H](O)[C@H](n4cc(-c5cc(F)c(F)c(F)c5)nn4)[C@H]3O)C2)CC1` (stereo partly drawn) [Ex 1.45] were 110 nM and 1020 nM.
In the same order, the values of `CO[C@@H]1[C@@H](n2cc(-c3cccc(F)c3)nn2)[C@@H](O)[C@@H](CO)O[C@@H]1CC1CC(C2CCN(C(=O)OC(C)(C)C)CC2)=NO1` (stereo partly drawn) [Ex 1.115] are 440 nM and 940 nM.
Taken in the same sequence, the figures for `CC(=O)N1CCC(C2=NO[C@@H](C[C@H]3O[C@H](CO)[C@H](O)[C@H](n4cc(-c5cc(F)c(F)c(F)c5)nn4)[C@H]3O)C2)CC1` [Example 3.10, 1-(4-((R)-5-(((2R,3R,4R,5R,6R)-3,5-dihydroxy-6-(hydroxymethyl)-4-(4-(3,4,5-trifluorophenyl)-1H-1,2,3-triazol-1-yl)tetrahydro-2H-pyran-2-yl)methyl)-4,5-dihydroisoxazol-3-yl)piperidin-1-yl)ethan-1-one] were 620 nM and 5500 nM.
